Data from patent US10322165B2, “TIFA antagonists and their use for treating diseases” (ACADEMIA SINICA, priority 2017, dated 2019).

Tests used:
NF-κB = assay: Luciferase reporter assay and western blot for NF-κB activity; assay type: cell-based; settings: for TNF-α-dependent NF-κB activation and elevations of NF-κB signaling factors: U937 cells stably expressing the fragment, 10 ng/mL TNF-α for 30 min
Method: After 5 repeated freeze-thaw cycles, cell extracts were cleared by centrifugation at 4° C. Cell extracts were quantified using Bradford assay, and equal amounts of soluble proteins were mixed with SDS sample buffer, boiled, separated by SDS-PAGE, and blotted onto PVDF membranes (Millipore). Membranes were then blocked for 1 h with 5% dry milk in PBST (PBS supplemented with 0.1% Tween-20) buffer and incubated for overnight at 4° C. with primary antibody diluted in PBST containing 1% bovine serum albumin (Sigma). After three washes with PBST, membranes were incubated with HRP-conjugated anti-mouse or anti-rabbit IgG. […] All western blot analyses were performed independently at least three times except that of primary PBMCs.
Luciferase-based NF-κB reporter assay was conducted as previously described (20). A total of 6×10^5 293T or 10^6 suspension U937 Cells in one well of 6-well plates with indicated conditions were transiently transfected with 2 μg of pNF-κB-Luc reporter plasmid for 48 h before harvest. Cells were treated with 10 ng/mL TNF-α (R&D Systems) for 30 min and lysed with 1× passive lysis buffer (Promega). 100 μg of cell lysates was dispensed into a well of 96-well plate, followed by addition of 100 μL of luciferase assay buffer LARII (Promega) and 100 μL of Stop & Glo reagent (Promega). The triplicated chemiluminescence were measured by SpectraMax Paradigm Multi-Mode Plate Reader (Molecular Devices) and normalized to corresponding β-actin level from a parallel western blot analysis of cell lysates. Results were represented as relative luminescence units (RLU) from three independent experiments.

[1] = system: AML cell lines HL-60, KG-1, THP-1, and U937; assay: WST-1 viability assay, growth of AML lines; assay type: cell-based; settings: WST-1, time course after TIFA silencing
Method: (§1) To silence specific genes, 6×10^5293T cells or 10^6 suspension cells were transfected with 30 pmol (293T cells) or 50 pmol (suspension cells) of indicated siRNA supplemented with 9 or 15 μL of Lipofectamine RNAiMAX (Invitrogen) in the presence of Opti-MEM (Invitrogen) according to the manufacturer's instruction. Six hours after primary transfection, cells were incubated with the regular medium for 24 h, and the secondary siRNA transfection was performed with the same protocol. Cells or conditional media were collected after 72 h of incubation.
(§2) A total of 10^5 suspension cells under indicated condition were seeded per well in 96-well plates and cell viability was analyzed at the indicated time point post treatment.

[2] = system: acute lymphoblastic leukemia (ALL) line Jurkat and CML line K562; assay: WST-1 viability assay, proliferation of ALL and CML lines; assay type: cell-based
Method: as §1, §2

AML PBMCs = assay: WST-1 viability and chemosensitivity of freshly isolated AML PBMCs; assay type: cell-based, human; settings: TIFA silencing
Source text: Hela, 293T, and HL-60 cell lines were obtained from Dr. Li-Jung Juan of Academia Sinica (Taipei, Taiwan, 2014), KG-1 cell line was obtained from Prof. Shih-Lan Hsu of Taichung Veterans General Hospital (Taichung, Taiwan, 2015), and the rest of cell lines were obtained from Dr. Shui-Tein Chen of Academia Sinica (Taipei, Taiwan, 2015). All cell lines were expanded and stored in liquid nitrogen when received. Original vials were thawed for these experiments and authenticated simultaneously by STR DNA fingerprinting using the Promega GenePrint® 10 System and analyzed by ABI PRISM 3730 GENETIC ANALYZER and GeneMapper® softeware. All resulting SI R profiles were matched with known ATCC fingerprints (ATCC.org). Maintenance of respective cell lines followed our previous protocols (20,27,28). 293T and HeLa cells were maintained in Dulbecco's modified Eagle's medium (DMEM, Gibco). […] All media were supplemented with 10% decomplemented fetal bovine serum (FBS, Gibco), […] L-glutamine (Gibco), 100 U/mL penicillin (Gibco) and 100 μg/mL streptomycin (Gibco). All cells were incubated in a humidified atmosphere at 37° C. with 5% CO2. To isolate human PBMCs, freshly acquired whole bloods were layered over Ficoll (GE healthcare) as previously described (28). Isolated primary cells were maintained according to a previously described protocol (29) and subjected to experimental analyses within two weeks. […]

U937 cells [3] = assay: WST-1 viability of cytarabine-treated U937 cells; assay type: cell-based; settings: 5 μg/mL etanercept, 50 nM bortezomib, or 1 μM ABT-263 together with 10 μM cytarabine
Method: as §2

J5 (liver cancer cells) = assay: WST-1 cytotoxicity of anti-cancer treatments with or without TIFA silencing; assay type: cell-based; settings: 4th day, Sorafenib 5 μM, Cisplatin 5 μM, Etoposide 10 μM, IR 5Gy
Method: (§3) For transient transfection of 293T cells, 6×10^5 cells were transfected with 2 μg of indicated plasmid DNA using Jet-PEI (Polyplus Transfection) for 48 h (pCDNA3.1 vector, HA-tagged TIFA, and pNF-κB-Luc) or 24 h (Flag-tagged Aurora A) according to the manufacturer's instruction. For transient transfection of U937 cells, 10^6 suspension cells were transfected with 3 μg of the pNF-κB-Luc plasmid DNA using Lipofectamine 2000 (Invitrogen) for 48 h according to the manufacturer's instruction. To silence specific genes, 6×10^5293T cells or 10^6 suspension cells were transfected with 30 pmol (293T cells) or 50 pmol (suspension cells) of indicated siRNA supplemented with 9 or 15 μL of Lipofectamine RNAiMAX (Invitrogen) in the presence of Opti-MEM (Invitrogen) according to the manufacturer's instruction. Six hours after primary transfection, cells were incubated with the regular medium for 24 h, and the secondary siRNA transfection was performed with the same protocol. Cells or conditional media were collected after 72 h of incubation.
as §2
(§4) Cytotoxicity of cells at the 4th day was normalized to treatment without TIFA silencing and presented.

[4] = system: MCF-7 (breast cancer cells); assay: as above; assay type: cell-based; settings: 4th day, Sorafenib 5 μM, Cisplatin 5 μM, Etoposide 10 μM, IR 5Gy
Method: as §3, §2, §4

[5] = system: MDA-MB-231 (breast cancer cells); assay: as above; assay type: cell-based; settings: 4th day, Sorafenib 5 μM, Cisplatin 5 μM, Etoposide 10 μM, IR 5Gy
Method: as §3, §2, §4

[6] = system: NTera2 (testicular embryonic carcinoma); assay: as above; assay type: cell-based; settings: 4th day, Sorafenib 5 μM, Cisplatin 5 μM, Etoposide 10 μM, IR 5Gy
Method: as §3, §2, §4

[7] = system: AML lines (HL-60, KG-1, THP-1, U937); assay: WST-1 based survival test, IC50 of chemo drugs in AML lines; assay type: cell-based; settings: all four tested AML lines; siTIFA vs control siRNA
A549 (lung cancer cells) = assay: WST-1 cytotoxicity of anti-cancer treatments with or without TIFA silencing; settings: 4th day, Sorafenib 5 μM, Cisplatin 5 μM, Etoposide 10 μM, IR 5Gy
Method: as §3, §2, §4

H446 (lung cancer cells) = assay: as above; settings: 4th day, Sorafenib 5 μM, Cisplatin 5 μM, Etoposide 10 μM, IR 5Gy
Method: as §3, §2, §4

[8] = system: HeLa (cervical cancer cells); assay: as above; settings: 4th day, Sorafenib 5 μM, Cisplatin 5 μM, Etoposide 10 μM, IR 5Gy
Method: as §3, §2, §4

[9] = system: HepG2 (liver cancer cells); assay: as above; settings: 4th day, Sorafenib 5 μM, Cisplatin 5 μM, Etoposide 10 μM, IR 5Gy
Method: as §3, §2, §4

Jurkat (leukaemia cells) = assay: as above; settings: 4th day, Sorafenib 5 μM, Cisplatin 5 μM, Etoposide 10 μM, IR 5Gy
Method: as §3, §2, §4

K562 (leukaemia cells) = assay: as above; settings: 4th day, Sorafenib 5 μM, Cisplatin 5 μM, Etoposide 10 μM, IR 5Gy
Method: as §3, §2, §4

THP-1 (leukaemia cells) = assay: as above; settings: 4th day, Sorafenib 5 μM, Cisplatin 5 μM, Etoposide 10 μM, IR 5Gy
Method: as §3, §2, §4

[10] = system: U2OS (osteosarcoma cells); assay: as above; settings: 4th day, Sorafenib 5 μM, Cisplatin 5 μM, Etoposide 10 μM, IR 5Gy
Method: as §3, §2, §4

U937 cells [11] = assay: Cytokine antibody array and ELISA of secreted cytokines; assay type: cell-based; settings: 10 μM cytarabine, conditioned media
Method: Condition media from equal numbers of cultured U937 cells were collected at 72 h post indicated treatments and assessed by the Human Cytokine Array C1 according to the manufacturer's instruction (AAH-CYT-1, RayBiotech). Data were acquired using the ImageJ software and normalized to the positive controls. When indicated, the amounts of secreted cytokines and chemokines in the conditional mediums were determined by the enzyme-linked immunosorbent assay (ELISA) test kit following the manufacturer's instructions (R&D Systems). The absorbances of triplicated samples were read by SpectraMax Paradigm Plate Reader (Molecular Devices).

endogenous TIFA = target: T1, endogenous TIFA (Homo sapiens, UniProt Q96CG3); assay: Immunoprecipitation of lysates from transduced U937 cells; assay type: binding; settings: U937 cells stably expressing Myc-tagged fragment; anti-Myc immunobeads, western blot
T1 construct: endogenous in cells; host or cells: U937 cells (retrovirally transduced with Myc-tagged TIFA fragments)
T1 sequence (Q96CG3 1-184): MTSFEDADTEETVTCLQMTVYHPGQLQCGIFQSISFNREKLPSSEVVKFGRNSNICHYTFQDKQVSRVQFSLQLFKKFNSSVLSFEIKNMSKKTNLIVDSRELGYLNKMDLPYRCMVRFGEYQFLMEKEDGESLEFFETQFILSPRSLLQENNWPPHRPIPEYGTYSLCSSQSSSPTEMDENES

Molecule: 5′-UCAGGACAAACAGGUUUCCCGAGUU-3′ [TIFA siRNA]
- elevation of activated NF-κB, phosphorylated IκK and IκB, and NF-κB-driven luciferase activity (NF-κB; overexpression of Aurora A (293T) or TNF-α treatment (U937), silencing of TIFA): negated
- growth of AML cell lines [1]: attenuates the growth
- cell proliferation [2]: inhibited
- growth of AML PBMCs (AML PBMCs; WST-1 time course): growth retardation
- chemosensitivities of patient-derived PBMCs (AML PBMCs; chemo drug treatments, WST-1): consistently promoted chemosensitivities

Molecule: CC1(C)CCC(c2ccc(Cl)cc2)=C(CN2CCN(c3ccc(C(=O)NS(=O)(=O)c4ccc(N[C@H](CCN5CCOCC5)CSc5ccccc5)c(S(=O)(=O)C(F)(F)F)c4)cc3)CC2)C1 [ABT-263]
- cytotoxicity of cytarabine-treated U937 cells (U937 cells [3]): enhanced the cytotoxicity

Molecule: COc1cc([C@@H]2c3cc4c(cc3[C@@H](O[C@@H]3O[C@@H]5CO[C@@H](C)O[C@H]5[C@H](O)[C@H]3O)[C@H]3COC(=O)[C@H]23)OCO4)cc(OC)c1O [Etoposide, etoposide]
- fold change of cytotoxicity (cytotoxicity of TIFA silencing/cytotoxicity of non-silencing) (J5 (liver cancer cells)): 1.64 fold changes
- fold change of cytotoxicity (cytotoxicity of TIFA silencing/cytotoxicity of non-silencing) [4]: 1.30 fold changes
- fold change of cytotoxicity (cytotoxicity of TIFA silencing/cytotoxicity of non-silencing) [5]: 1.46 fold changes
- fold change of cytotoxicity (cytotoxicity of TIFA silencing/cytotoxicity of non-silencing) [6]: 1.15 fold changes
- decrease in IC50 of the chemo drug under TIFA silencing [7]: ca. 50%
- fold change of cytotoxicity (cytotoxicity of TIFA silencing/cytotoxicity of non-silencing) (A549 (lung cancer cells)): 1.77 fold changes
- fold change of cytotoxicity (cytotoxicity of TIFA silencing/cytotoxicity of non-silencing) (H446 (lung cancer cells)): 1.27 fold changes
- fold change of cytotoxicity (cytotoxicity of TIFA silencing/cytotoxicity of non-silencing) [8]: 1.29 fold changes
- fold change of cytotoxicity (cytotoxicity of TIFA silencing/cytotoxicity of non-silencing) [9]: 1.61 fold changes
- fold change of cytotoxicity (cytotoxicity of TIFA silencing/cytotoxicity of non-silencing) (Jurkat (leukaemia cells)): 1.79 fold changes
- fold change of cytotoxicity (cytotoxicity of TIFA silencing/cytotoxicity of non-silencing) (K562 (leukaemia cells)): 2.28 fold changes
- fold change of cytotoxicity (cytotoxicity of TIFA silencing/cytotoxicity of non-silencing) (THP-1 (leukaemia cells)): 1.59 fold changes
- fold change of cytotoxicity (cytotoxicity of TIFA silencing/cytotoxicity of non-silencing) [10]: 1.48 fold changes

Molecule: CNC(=O)c1cc(Oc2ccc(NC(=O)Nc3ccc(Cl)c(C(F)(F)F)c3)cc2)ccn1 [Sorafenib, sorafenib]
- fold change of cytotoxicity (cytotoxicity of TIFA silencing/cytotoxicity of non-silencing) [4]: 1.47 fold changes

Molecule: Cc1cc(Nc2cc(N3CCN(C)CC3)nc(Sc3ccc(NC(=O)C4CC4)cc3)n2)n[nH]1 [VX680]
- cell proliferation [2]: inhibited

Molecule: CC(C)C[C@H](NC(=O)[C@H](Cc1ccccc1)NC(=O)c1cnccn1)B(O)O [bortezomib]
- cytotoxicity of cytarabine-treated U937 cells (U937 cells [3]): enhanced the cytotoxicity

Molecule: Nc1ccn([C@@H]2O[C@H](CO)[C@@H](O)[C@@H]2O)c(=O)n1 [cytarabine]
- decrease in IC50 of the chemo drug under TIFA silencing [7]: ca. 50%
- secretion of IL-6 (U937 cells [11]): suppressed
- secretion of TNF-α, CXCL-1, and IL-8 (U937 cells [11]): promoted

Molecule: CC(=O)[C@]1(O)Cc2c(O)c3c(c(O)c2[C@@H](O[C@H]2C[C@H](N)[C@H](O)[C@H](C)O2)C1)C(=O)c1ccccc1C3=O [idarubicin]
- decrease in IC50 of the chemo drug under TIFA silencing [7]: ca. 50%

Molecule: etanercept
- cytotoxicity of cytarabine-treated U937 cells (U937 cells [3]): enhanced the cytotoxicity

B1: F2F3: dominant-negative TIFA fragment: dimerization-core (F2) plus TRAF6/TRAF2 interacting segment (F3), Myc-tagged, expressed by retroviral transduction (protein)
chain: VVKFGRNSNICHYTFQDKQVSRVQFSLQLFKKFNSSVLSFEIKNMSKKTNLIVDSRELGYLNKMDLPYRCMVRFGEYQFLMEKEDGESLEFFETQFILSPRSLLQENNWPPHRPIPEYGTYSLCSSQSSSPTEMDENES
modifications: left off: small tags and cut ends
- TNF-α-dependent NF-κB activation and elevations of NF-κB signaling factors (NF-κB): attenuated
- pull down of endogenous TIFA (endogenous TIFA): able to pull down endogenous TIFA

B2: F1F2: dominant-negative TIFA fragment: Thr9 segment (F1) plus dimerization-core (F2), Myc-tagged, expressed by retroviral transduction (protein)
chain: MTSFEDADTEETVTCLQMTVYHPGQLQCGIFQSISFNREKLPSSEVVKFGRNSNICHYTFQDKQVSRVQFSLQLFKKFNSSVLSFEIKNMSKKTNLIVDSREL
modifications: left off: small tags and cut ends
notes: dominant-negative TIFA fragment: Thr9 segment (F1) plus dimerization-core (F2), Myc-tagged, expressed by retroviral transduction
- TNF-α-dependent NF-κB activation and elevations of NF-κB signaling factors (NF-κB): attenuated
- pull down of endogenous TIFA (endogenous TIFA): able to pull down endogenous TIFA
